Assay results published in patent EP0201999A1 (priority 1985, dated 1986).
Marks after values point to notes of the source that are not given here.

Columns and labels:
Type in all cases: in vivo
VENTURIA INAEQUALIS = experiment: Foliar fungal disease test on plants (Example 29), Venturia inaequalis on apples; conditions: 100 ppm a.i. foliar spray plus root drench approx. 40 ppm ai./dry soil, mostly protectant, applied 1-2 days before inoculation
Experimental: (§1) The compounds were tested against a variety of mainly foliar fungal diseases of plants. The techniques employed were as follows.
(§2) For all tests the plants were grown in John Innes Potting Compost (No. 1 or 2) in 4 cm diameter minipots. The test compounds were formulated either by bead milling with aqueous Dispersol T or as a solution in acetone or acetone/ethanol which was diluted to the required concentration immediately before use. The solutions or suspensions (100 ppm ia.) were sprayed on the foliage and applied to the roots of the plant via the soil. The sprays were applied to maximum retention and the root drenches to a final concentration equivalent to approximately 40 ppm ai./dry soil. "TWEEN" 20, to give a final concentration of 0.05%, was added when the sprays were applied to cereals. (a.i. means "active ingredient"). The word "TWEEN" is a Trade Mark.
(§3) Most were protectant tests where the compound was applied to the soil and roots and to the foliage one or two days before the plant was inoculated with the pathogen. The foliar pathogens were applied by spraying as spore suspensions onto the leaves of the test plants.
(§4) After inoculation, the plants were placed in an appropriate environment to allow infection to proceed and then incubated until the disease was ready for assessment. The period between inoculation and assessment varied from four to fourteen days according to the disease and the environment.
(§5) Disease control was recorded using the following grading system : • 4 = no disease • 3 = trace to 5% of disease on untreated plants • 2 = 6-25% of disease on untreated plants • 1 = 26-59% of disease on untreated plants • 0 = 60-100% of disease on untreated plants

CERCOSPORA ARACHIDICOLA = experiment: Foliar fungal disease test on plants (Example 29), Cercospora arachidicola on peanuts; conditions: 100 ppm a.i. foliar spray plus root drench approx. 40 ppm ai./dry soil, mostly protectant, applied 1-2 days before inoculation
Experimental: as §1, §2, §3, §4, §5

PUCCINIA RECONDITA = experiment: Foliar fungal disease test on plants (Example 29), Puccinia recondita on wheat; conditions: 100 ppm a.i. foliar spray plus root drench approx. 40 ppm ai./dry soil, mostly protectant, applied 1-2 days before inoculation
Experimental: as §1, §2, §3, §4, §5

P[…] = conditions: 100 ppm a.i. foliar spray plus root drench approx. 40 ppm ai./dry soil, mostly protectant, applied 1-2 days before inoculation
[…] [1] = Root drench test against Plasmopara viticola on vines (Example 30); conditions: vines (variety ohanez), 25 ppm, approx. 10 ppm compound/dry soil, inoculated after 2 days, assessed six days later
Experimental: This Example illustrates the activity of the invention compounds against the disease Plasmopara viticola on vines.
For the test on Plasmopara viticola the vine plants (variety ohanez) were grown in John Innes Potting Compost (No. 1 or 2) in 4 cm diameter minipots. The test compounds were formulated either by bead milling with aqueous Dispersol T or as a solution in acetone or acetone/ ethanol which was diluted to a concentration of 25 ppm of the compound immediately before use. The solutions or suspensions were applied as a root drench to a final concentration equivalent to approximately 10 ppm compound/dry soil. After 2 days the plants were inoculated with the pathogen, and then placed in a humidity cabinet to allow infection to proceed, and the assessment carried out six days later.
The disease grading system was as for Example 29.

[…] [2] = Foliar fungal disease test on plants (Example 29), […] on vines; conditions: 100 ppm a.i. foliar spray plus root drench approx. 40 ppm ai./dry soil, mostly protectant, applied 1-2 days before inoculation
Experimental: as §1, §2, §3, §4, §5

[3] = system: Phytophthora infestans lycopersicii; conditions: tomato plants (variety Outdoor Girl); 100 ppm ai.; inoculated after 1 day; 24 hours humidity cabinet, assessed after a further 2 days
[…] [4] = Root drench test against Plasmopara viticola on vines (Example 30); conditions: vines (variety ohanez), test concentration 30 ppm (marked *), inoculated after 2 days, assessed six days later

Row | Structure (SMILES) | Disease control VENTURIA INAEQUALIS (APPLES) (VENTURIA INAEQUALIS) | Disease control CERCOSPORA ARACHIDICOLA (PEANUTS) (CERCOSPORA ARACHIDICOLA) | Disease control PUCCINIA RECONDITA (WHEAT) (PUCCINIA RECONDITA) | Disease control P[…] (RICE) (P[…]) | Disease control […] (VINES) ([…] [1]) | Disease control […] (VINES) ([…] [2]) | Disease control Phytophthora infestans (tomatoes) [3] | Disease control […] (VINES) ([…] [4])
1 | CON=C(C#N)C(=O)NC(C#N)c1ccco1 (stereo not drawn) [Compound 63, 2-cyano-2-methoxyimino-N-[(2-furyl)-α-cyano-methyl]-acetamide] | 0 (0 = 60-100% of disease on untreated plants) | 0 (0 = 60-100% of disease on untreated plants) | 2 (2 = 6-25% of disease on untreated plants) | 0 (0 = 60-100% of disease on untreated plants) | 4 | 4 |  | 
2 | CON=C(C#N)C(=O)NCC#N [Compound 20, 2-cyano-2-methoxyimino-N-(cyanomethyl)-acetamide] | 3 (3 = trace to 5% of disease on untreated plants) | 2 (2 = 6-25% of disease on untreated plants) | 3 (3 = trace to 5% of disease on untreated plants) | 1 (1 = 26-59% of disease on untreated plants) | 4 | 4 | 2 (2 = 6-25% of disease on untreated plants) | 
3 | CON=C(C#N)C(=O)NCC(=O)OC [Compound 24, methoxycarbonylmethyl-(2-cyano-2-methoxyimino)-acetamide] | 0 (0 = 60-100% of disease on untreated plants) | 2 (2 = 6-25% of disease on untreated plants) | 1 (1 = 26-59% of disease on untreated plants) | 0 (0 = 60-100% of disease on untreated plants) | 0 (0 = 60-100% of disease on untreated plants) | 4 |  | 
4 | C#CCNC(=O)C(C#N)=NOC [Compound 1, 2-cyano-2-methoxyimino-N-propargylacetamide] | 2 (2 = 6-25% of disease on untreated plants) | 2 (2 = 6-25% of disease on untreated plants) | 4 | 3 (3 = trace to 5% of disease on untreated plants) | 4 | 4 |  | 
5 | CCON=C(C#N)C(=O)NCC#N [Compound 22, 2-cyano-2-ethoxyimino-N-(cyanomethyl)-acetamide] | 4 | 3 (3 = trace to 5% of disease on untreated plants) | 3 (3 = trace to 5% of disease on untreated plants) | 3 (3 = trace to 5% of disease on untreated plants) | 4 | 4 |  | 
6 | CON=C(C#N)C(=O)NCC(N)=S [Compound 54, 2-cyano-2-methoxyimino-N-(thio-carbamoylmethyl)-acetamide] | 0 (0 = 60-100% of disease on untreated plants) | 3 (3 = trace to 5% of disease on untreated plants) | 3 (3 = trace to 5% of disease on untreated plants) | 0 (0 = 60-100% of disease on untreated plants) | 4 | 4 | 3 (3 = trace to 5% of disease on untreated plants) | 
7 | CON=C(C#N)C(=O)NC(C)C#N (stereo not drawn) [Compound 34, 2-cyano-2-methoxyimino-N-(α-cyanoethyl)-acetamide] | 0 (0 = 60-100% of disease on untreated plants) | 0 (0 = 60-100% of disease on untreated plants) | 4 | 0 (0 = 60-100% of disease on untreated plants) | 4 | 4 | 3 (3 = trace to 5% of disease on untreated plants) | 
8 | C#CCN(CC=C)C(=O)C(C#N)=NOC [Compound 10, 2-cyano-2-methoxyimino-N-(propargyl)-N-allylacetamide] | 0 (0 = 60-100% of disease on untreated plants) | 2 (2 = 6-25% of disease on untreated plants) | 0 (0 = 60-100% of disease on untreated plants) | 0 (0 = 60-100% of disease on untreated plants) | 2 (2 = 6-25% of disease on untreated plants) | 3 (3 = trace to 5% of disease on untreated plants) |  | 
9 | CON=C(C#N)C(=O)NCC(I)=CI [Compound 7, 2-cyano-2-methoxyimino-N-2,3-diiodo-allylacetamide] | 0 (0 = 60-100% of disease on untreated plants) | 0 (0 = 60-100% of disease on untreated plants) | 0 (0 = 60-100% of disease on untreated plants) | 2 (2 = 6-25% of disease on untreated plants) |  | 4 |  | 2* (2 = 6-25% of disease on untreated plants)
10 | C#CCN(CC#C)C(=O)C(C#N)=NOC [Compound 9, 2-cyano-2-methoxyimino-N,N-dipropargyl-acetamide] | 0 (0 = 60-100% of disease on untreated plants) | 0 (0 = 60-100% of disease on untreated plants) | 2 (2 = 6-25% of disease on untreated plants) | 2 (2 = 6-25% of disease on untreated plants) |  | 4 |  | 3* (3 = trace to 5% of disease on untreated plants)
11 | CON=C(C#N)C(=O)Nc1nccs1 [Compound 25, 2-cyano-2-methoxyimino-N-2-thiazolylacetamide] | 2 (2 = 6-25% of disease on untreated plants) | 0 (0 = 60-100% of disease on untreated plants) | 3 (3 = trace to 5% of disease on untreated plants) | 0 (0 = 60-100% of disease on untreated plants) | 0 (0 = 60-100% of disease on untreated plants) | 4 | 2 (2 = 6-25% of disease on untreated plants) | 
12 | N#CCNC(=O)C(C#N)=NO [Compound 31, 2-cyano-2-oximino-N-(cyanomethyl)-acetamide] | 0 (0 = 60-100% of disease on untreated plants) | 0 (0 = 60-100% of disease on untreated plants) | 0 (0 = 60-100% of disease on untreated plants) | 2 (2 = 6-25% of disease on untreated plants) |  | 0 (0 = 60-100% of disease on untreated plants) |  | 
